In patent publication US10556860B2, “hTERT modulators and methods of use” (Arizona Board of Regents on Behalf of the University of …, priority 2015, dated 2020):
Entries after “also recorded” stand apart in the source; their conditions may differ.

Assays:
G124A 5-12 G-quadruplex = assay: CD kinetics, temperature-jump, G124A; format: biochemical, human; conditions: 2 equiv
Description: FIGS. 10A and 10B are a set of graphs showing (A) comparison of kinetics of initial folding rate of the WT 5-12 G-quadruplex with GTC365 and BRACO-19 by the temperature-jump method. (B) Enhanced initial folding rate of the 5-12 G-quadruplexes carrying different hTERT mutants by GTC365. The time-course CD signal of preheated oligo with compound or DMSO in a buffer containing 10 mM Tris-HCl (pH 7.5) and 5 mM KCl was monitored at 262 nm and 25° C.
For the kinetics analysis using the temperature-jump method, theoligo in a buffer containing 10 mM Tris-HCl (pH 7.5) was heated forl min at 95° C., and then a mixture of KCl and compound was addedand incubated for 1 min. Meanwhile, the CD cuvette was also heatedat 95° C. As soon as the sample in the CD cuvette at the hightemperature was placed in the CD chamber, a time-dependent CDsignal at 262 nm was recorded immediately. The initial folding ratewas determined by one-phase association curve fitting (eq 1) of thekinetics curve using GraphPad Prism 5: Y=Y0+(Plateau−Y0)*(1−e^−kx) (1) where Y is the CD signal at any time point x, Y0 is the Y value whentime (x) is zero, plateau is the Y value at infinite time, and k is the rateconstant.
To evaluate the comparative effects of GTC365 relative to BRACO-19 on the cooperative folding process, we carried out two different experiments. […]

[1] = tested on: normal human melanocytes (NHM-002); assay: Viability of normal human melanocytes; format: cell-based; conditions: 1.25, 2.5 and 5 μM, 72 h
Description: FIGS. 13A-13C are a set of graphs showingselective reduction in viability (A) and hTERT expression (B) in melanoma cells carrying hTERT core promotor mutations. NHM-002 (normal human melanocytes) and a G124A mutant cell line were treated with vehicle, 1.25, 2.5, and 5 μM GTC365 for 72 h. Viability was reduced in hTERT mutant melanoma cells by 50% (left). […] (C) Differential response to GTC365 in WT and promoter mutant cell lines.
Next, to assess the selectivity of GTC365 for hTERT-dependent cancer cells relative to normal precursorcells, we compared the effects of a range of […] on viability at 72 h in normal humanmelanocytes (NHM-002) relative to those of UACC-903, aG124A mutant (FIG. 13A). […] To confirm that the reduction in cell viability was aresult of hTERT downregulation, we performed reverse transcription and qPCR to measure the mRNA level of hTERT expression in cells treated with DMSO or 5 μMGTC365. hTERT expression was reduced by 41% in themelanoma cell line after 72 h but was undetectable in normalmelanocytes, even in the absence of GTC365 (FIG. 13B). Finally, tobroadly assess the selectivity of GTC365 for hTERT promotermutant versus WT cells, we conducted a 6-point 72 h MTSproliferation assay to determine EC50s in 14 additional melanoma cell lines with characterized TERT promoter status([…]) (FIG. 13C). […]

MCF7 cells = assay: Counting of live cells treated with GTC365; format: cell-based, human; conditions: low dose, nine days
Description: Counting of live cells treated with GTC365. MCF7 cells were treated with DMSO or 0.5 μM of GTC365. Cells were trypsinized and then subjected to trypan blue exclusion staining for counting of live cells using microscopy every three days. Afterward, 70% of cells were recultured with fresh media and DMSO or GTC365. Relative cell numbers compared to the DMSO were obtained.
Since knockdown of hTERT arrests the cell cycle in the G0/G1 phase, the effects of GTC365 on the cell cycle were evaluated. GTC365 increased the population of the G0/G1 (from 57% to 71%) and G2/M phases (from 10% to 19%), whereas the S-phase was decreased (from 33% to 10%) in a dose-dependent manner with 48 h treatment. […] It is known that various anticancer drugs induce SLP in different cancer cells, leading to mitotic catastrophe as well as apoptotic cell death. Doxorubicin, one of the representative anticancer drugs, induced apoptosis and mitotic catastrophe accompanied by multiple nuclei with SLP. GTC365, like doxorubicin, appears to arrest cell proliferation and induce cell death, apoptosis, or mitotic catastrophe through downregulation of hTERT.

SMILES: N=C(N)NCCCS(=O)(=O)Nc1ccc(Nc2c3ccccc3nc3cc([N+](=O)[O-])ccc23)cc1 [GTC365]
- increase of initial folding rate (G124A 5-12 G-quadruplex): 0.049 s⁻¹
- viability change [1]: minimal viability change; also recorded: minimal reduction
- cell death of cells showing SLP (MCF7 cells): underwent cell death
